Columns and labels:
Assay type in all cases: cell-based
[1] = system: normal primary human skin fibroblastic cells; assay: Content of collagen in cell medium (extracellular collagen) of fibroblasts (Western blot and ELISA), relative to control; conditions: 48 hours; for relative content of collagen in the medium (extracellular content of collagen): control group = 100%; for extracellular contents of collagen (collagen in cell medium) as compared to the control group (in words): treated cells vs control group
Method: The normal primary human skin fibroblastic cells (purchased from ATCC) were cultivated in a Fibroblast Growth Medium. The cells thus provided were used in the following experiments.
The normal primary human skin fibroblastic cells provided by [Preparation Example C] were divided into 4 groups and were respectively cultivated with the following medium for 48 hours: • 1. Group I: a Fibroblast Growth Medium; • 2.
(§1) Thereafter, the cell medium of each group was collected and concentrated. Then, the intracellular content of collagen, the content of collagen in cell medium (i.e., extracellular content of collagen) and the content of hyaluronic acid in cell medium were measured and analyzed by Western blot and enzyme-linked immunosorbent assay (ELISA).
(§2) The normal primary human skin fibroblastic cells provided by [Preparation Example C] were divided into 37 groups and were respectively cultivated with the following medium for 48 hours: • 1. Group 1: a Fibroblast Growth Medium • 2. Group 2-1 to 2-3: Fibroblast Growth Media containing the pachymic acid (PA) provided by [Preparation Example B] at a concentration of 0.01, 0.1 and 1 μM, respectively; • 3. Group 3-1 to 3-3: Fibroblast Growth Media containing the dehydropachymic acid (DPA) provided by [Preparation Example B] at a concentration of 0.01, 0.1 and 1 μM, respectively; • 4. Group 4-1 to 4-3: Fibroblast Growth Media containing the tumulosic acid (TA) provided by [Preparation Example B] at a concentration of 0.01, 0.1 and 1 μM, respectively; • 5. Group 5-1 to 5-3: Fibroblast Growth Media containing the dehydrotumulosic acid (DTA) provided by [Preparation Example B] at a concentration of 0.01, 0.1 and 1 μM, respectively; • 6. Group 6-1 to 6-3: Fibroblast Growth Media containing the polyporenic acid C (PAC) provided by [Preparation Example B] at a concentration of 0.01, 0.1 and 1 μM, respectively; • 7. Group 7-1 to 7-3: Fibroblast Growth Media containing the 3-epi-dehydrotumulosic acid (EDTA) provided by [Preparation Example B] at a concentration of 0.01, 0.1 and 1 μM, respectively; • 8. Group 8-1 to 8-3: Fibroblast Growth Media containing the dehydrotrametenolic acid (DTTA) provided by [Preparation Example B] at a concentration of 0.01, 0.1 and 1 μM, respectively; • 9. Group 9-1 to 9-3: Fibroblast Growth Media containing the trametenolic acid (TTA) provided by [Preparation Example B] at a concentration of 0.01, 0.1 and 1 μM, respectively; • 10. Group 10-1 to 10-3: Fibroblast Growth Media containing the poricoic acid A (PAA) provided by [Preparation Example B] at a concentration of 0.01, 0.1 and 1 μM, respectively; • 11. Group 11-1 to 11-3: Fibroblast Growth Media containing the dehydroeburicoic acid (DEA) provided by [Preparation Example B] at a concentration of 0.01, 0.1 and 1 μM, respectively; • 12. Group 12-1 to 12-3: Fibroblast Growth Media containing the poricoic acid B (PAB) provided by [Preparation Example B] at a concentration of 0.01, 0.1 and 1 μM, respectively; • 13. Group 13-1 to 13-3: Fibroblast Growth Media containing the eburicoic acid (EA) provided by [Preparation Example B] at a concentration of 0.01, 0.1 and 1 μM, respectively.
The content of collagen in the medium of each group (i.e., extracellular content of collagen) was provided.

[2] = system: normal primary human skin fibroblastic cells; assay: Content of hyaluronic acid in cell medium of fibroblasts (Western blot and ELISA), relative to control; conditions: 48 hours; for relative content of hyaluronic acid in the medium (extracellular content of hyaluronic acid): control group = 100%; for contents of hyaluronic acid as compared to the control group (in words) / contents of hyaluronic acid, ingredients singled out as stronger (in words): treated cells vs control group; for contents of hyaluronic acid, ingredients singled out as stronger (in words): compared with the other active ingredients
Method: (§3) The normal primary human skin fibroblastic cells (purchased from ATCC) were cultivated in a Fibroblast Growth Medium. The cells thus provided were used in the following experiments. […]
as §1, §2
The content of hyaluronic acid in the medium of each group (i.e., extracellular content of hyaluronic acid) was provided.

[3] = system: normal primary human skin fibroblastic cells; assay: Intracellular content of collagen in fibroblasts (Western blot and ELISA), relative to control; conditions: 48 hours; for relative intracellular content of collagen: control group = 100%; for intracellular contents of collagen as compared to the control group (in words): treated cells vs control group
Method: as §3, §2
Thereafter, the cell medium of each group was collected and concentrated. Then, the intracellular content of collagen was measured and analyzed by Western blot and enzyme-linked immunosorbent assay (ELISA).

| Structure (SMILES) | relative content of collagen in the medium (extracellular content of collagen) ([1]; 0.01 μM) [%] | relative content of collagen in the medium (extracellular content of collagen) ([1]; 0.1 μM) [%] | relative content of collagen in the medium (extracellular content of collagen) ([1]; 1 μM) [%] | extracellular contents of collagen (collagen in cell medium) as compared to the control group (in words) [1] | relative content of hyaluronic acid in the medium (extracellular content of hyaluronic acid) ([2]; 0.01 μM) [%] | relative content of hyaluronic acid in the medium (extracellular content of hyaluronic acid) ([2]; 0.1 μM) [%] | relative content of hyaluronic acid in the medium (extracellular content of hyaluronic acid) ([2]; 1 μM) [%] | contents of hyaluronic acid as compared to the control group (in words) [2] | relative intracellular content of collagen ([3]; 0.01 μM) [%] | relative intracellular content of collagen ([3]; 0.1 μM) [%] | relative intracellular content of collagen ([3]; 1 μM) [%] | intracellular contents of collagen as compared to the control group (in words) [3] | contents of hyaluronic acid, ingredients singled out as stronger (in words) [2] |
| --- | --- | --- | --- | --- | --- | --- | --- | --- | --- | --- | --- | --- | --- |
| C=C(CC[C@@H](C(=O)O)[C@H]1CC[C@@]2(C)C3=C(CC[C@]12C)[C@@]1(C)CC[C@H](O)C(C)(C)[C@@H]1CC3)C(C)C [Eburicoic acid (EA), eburicoic acid] | 108 | 106 | 88 | significantly enhanced | 94 | 107 | 120 | significantly enhanced | 102 | 97 | 95 | – | – |
| C=C(CC[C@@H](C(=O)O)[C@H]1[C@H](O)C[C@@]2(C)C3=CC[C@@H](C(=C)C)[C@](C)(CCC(=O)O)C3=CC[C@]12C)C(C)C [Poricoic acid A (PAA), poricoic acid A] | 111 | 111 | 91 | significantly enhanced | 108 | 106 | 99 | significantly enhanced | 78 | 104 | 115 | significantly enhanced | – |
| C=C(CC[C@@H](C(=O)O)[C@H]1[C@H](O)C[C@@]2(C)C3=CC[C@H]4C(C)(C)C(=O)CC[C@]4(C)C3=CC[C@]12C)C(C)C [Polyporenic acid C (PAC), polyporenic acid C] | 134 | 162 | 153 | significantly enhanced | 93 | 113 | 98 | significantly enhanced | 162 | 182 | 200 | significantly enhanced | – |
| C=C(CC[C@@H](C(=O)O)[C@H]1CC[C@@]2(C)C3=CC[C@H]4C(C)(C)[C@@H](O)CC[C@]4(C)C3=CC[C@]12C)C(C)C [Dehydroeburicoic acid (DEA), dehydroeburicoic acid] | 143 | 148 | 185 | significantly enhanced | 115 | 118 | 128 | significantly enhanced | 94 | 80 | 77 | – | – |
| CC(C)=CCC[C@@H](C(=O)O)[C@H]1CC[C@@]2(C)C3=C(CC[C@]12C)[C@@]1(C)CC[C@H](O)C(C)(C)[C@@H]1CC3 [Trametenolic acid (TTA), trametenolic acid] | 141 | 149 | 142 | significantly enhanced | 83 | 108 | 125 | significantly enhanced | 95 | 79 | 79 | – | – |
| C=C(CC[C@@H](C(=O)O)[C@H]1[C@H](O)C[C@@]2(C)C3=CC[C@H]4C(C)(C)[C@@H](O)CC[C@]4(C)C3=CC[C@]12C)C(C)C [Dehydrotumulosic acid (DTA), dehydrotumulosic acid] | 122 | 105 | 139 | significantly enhanced | 112 | 134 | 168 | significantly enhanced | 159 | 156 | 127 | significantly enhanced | enhanced more significantly |
| C=C(CC[C@@H](C(=O)O)[C@H]1[C@H](O)C[C@@]2(C)C3=C(CC[C@]12C)[C@@]1(C)CC[C@H](O)C(C)(C)[C@@H]1CC3)C(C)C [Tumulosic acid (TA), tumulosic acid] | 140 | 136 | 141 | – | 100 | 123 | 124 | – | 148 | 127 | 147 | – | – |
| C=C(CCC(C(=O)O)[C@H]1[C@H](O)C[C@@]2(C)C3=CC[C@H]4C(C)(C)[C@@H](OC(C)=O)CC[C@]4(C)C3=CC[C@]12C)C(C)C (some centres unmarked) [Dehydropachymic acid (DPA), dehydropachymic acid] | 124 | 122 | 116 | significantly enhanced | 111 | 131 | 152 | significantly enhanced | 154 | 188 | 122 | significantly enhanced | enhanced more significantly |

From patent publication US11654169B2, “Methods for protecting skin and/or promoting wound healing” (SINPHAR PHARMACEUTICAL CO., LTD., priority 2016, dated 2023)
